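Grown in 96-well plates, cells were treated for 48 hours with each compound at five concentrations. Insufficient inhibition: endpoint recorded as highest concentration tested. GI50 marks 50% less growth.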 Calls of active or inactive are those of the source. No stated cut-off is given here; in the data, active = GI50 up to about 1.1 µM and inactive = higher.
Key:
Assay in all cases: NCI tumour cell line growth inhibition, 48 h
NCI-H522 = test system: NCI-H522
NCI-H460 = test system: NCI-H460
HT-29 = test system: HT-29
OVCAR-5 = test system: OVCAR-5
SK-MEL-28 = test system: SK-MEL-28
ACHN = test system: ACHN
SK-MEL-5 = test system: SK-MEL-5
RXF 393 = test system: RXF 393
HCC 2998 = test system: HCC 2998
IGROV-1 = test system: IGROV-1
SR = test system: SR
SF-539 = test system: SF-539
A549 = test system: A549
RPMI-8226 = test system: RPMI-8226
HCT-116 = test system: HCT-116
786-0 = test system: 786-0
HOP-62 = test system: HOP-62
HL-60 = test system: HL-60
SK-MEL-2 = test system: SK-MEL-2

Row | SMILES | GI50 (NCI-H522) | GI50 (NCI-H460) | GI50 (HT-29) | GI50 (OVCAR-5) | GI50 (SK-MEL-28) | GI50 (ACHN) | GI50 (SK-MEL-5) | GI50 (RXF 393) | GI50 (HCC 2998) | GI50 (IGROV-1) | GI50 (SR) | GI50 (SF-539) | GI50 (A549) | GI50 (RPMI-8226) | GI50 (HCT-116) | GI50 (786-0) | GI50 (HOP-62) | GI50 (HL-60) | GI50 (SK-MEL-2)
1 | COc1ccc(OC)c(NC(=O)c2c(Cl)c(Cl)c(Cl)c(Cl)c2-c2nc3ccccc3[nH]2)c1 | > 100 µM (inactive) | > 100 µM (inactive) | > 100 µM (inactive) | > 100 µM (inactive) | > 100 µM (inactive) | > 100 µM (inactive) | > 100 µM (inactive) | > 100 µM (inactive) | > 100 µM (inactive) | 89.1 µM (inactive) | 52.6 µM (inactive) | > 100 µM (inactive) | > 100 µM (inactive) | 45.4 µM (inactive) | > 100 µM (inactive) | > 100 µM (inactive) | > 100 µM (inactive) | 53.7 µM (inactive) | 
2 | CCOC(=O)c1ccc(/N=c2\oc3ccc(OC)cc3cc2-c2nc3ccccc3[nH]2)cc1 | 71.6 µM (inactive) | > 100 µM (inactive) | > 100 µM (inactive) | 54.3 µM (inactive) | > 100 µM (inactive) | > 100 µM (inactive) | 5.66 µM (inactive) | 40.6 µM (inactive) | 86.5 µM (inactive) | > 100 µM (inactive) | 59.3 µM (inactive) | 1.99 µM (inactive) | 51.2 µM (inactive) | > 100 µM (inactive) | > 100 µM (inactive) | > 100 µM (inactive) | 54.6 µM (inactive) | > 100 µM (inactive) | > 100 µM (inactive)
3 | CCCn1c(=O)c2nn3c(=O)n(CCC)c(=O)c3nn2c1=O | > 100 µM (inactive) | > 100 µM (inactive) | > 100 µM (inactive) | > 100 µM (inactive) | > 100 µM (inactive) | > 100 µM (inactive) | > 100 µM (inactive) | > 100 µM (inactive) | > 100 µM (inactive) | > 100 µM (inactive) | > 100 µM (inactive) | > 100 µM (inactive) | > 100 µM (inactive) | > 100 µM (inactive) | > 100 µM (inactive) | > 100 µM (inactive) | > 100 µM (inactive) | > 100 µM (inactive) | > 100 µM (inactive)
4 | COc1c(OC)c(OC)c2c(=O)cc(-c3ccc(OC(C)C)cc3)oc2c1OC | 20.9 µM (inactive) | 27.4 µM (inactive) | 8.32 µM (inactive) | 18.8 µM (inactive) | 38.4 µM (inactive) | 34.2 µM (inactive) | 8.97 µM (inactive) | > 33.5 µM (inactive) | 28.4 µM (inactive) | > 42.6 µM (inactive) | 0.369 µM (active) | 19.7 µM (inactive) | 24.2 µM (inactive) | 3.75 µM (inactive) | 10.8 µM (inactive) | > 34.1 µM (inactive) | 18.5 µM (inactive) | 2.07 µM (inactive) | 20.8 µM (inactive)
5 | CC(=O)c1cccc(Nc2c3ccccc3nc3occc23)c1 | 1.54 µM (inactive) | 22.8 µM (inactive) | 1.51 µM (inactive) | 37.2 µM (inactive) | 2.67 µM (inactive) | 9.73 µM (inactive) | 8.75 µM (inactive) | 0.09 µM (active) | 5.21 µM (inactive) | 2.54 µM (inactive) | 0.705 µM (active) | 2.16 µM (inactive) | 16.5 µM (inactive) | 3.34 µM (inactive) | 3.5 µM (inactive) | 4.08 µM (inactive) | 3.61 µM (inactive) | 3.48 µM (inactive) | 2.74 µM (inactive)
6 | O=C(c1cc2c(c3ccccc13)NC1(CCCCC1)N=C2C(F)(F)F)C(F)(F)F | 2.65 µM (inactive) | 3.27 µM (inactive) | 3.66 µM (inactive) | 8.83 µM (inactive) | 9.1 µM (inactive) | 3.63 µM (inactive) | 5.74 µM (inactive) | 3.66 µM (inactive) | 2.29 µM (inactive) | 4.93 µM (inactive) | 3.6 µM (inactive) | 2.53 µM (inactive) | 4.35 µM (inactive) | 3.47 µM (inactive) | 3.3 µM (inactive) | 3.82 µM (inactive) | 40.5 µM (inactive) | 2.9 µM (inactive) | 2.44 µM (inactive)
7 | COC(=O)C(C(=O)C(=O)Nc1cccc(OC)c1)c1cnc2ccccc2n1 (configuration not stated) | > 100 µM (inactive) | > 100 µM (inactive) | > 100 µM (inactive) | > 100 µM (inactive) | > 100 µM (inactive) | > 100 µM (inactive) | > 100 µM (inactive) | 46.1 µM (inactive) | > 100 µM (inactive) | > 100 µM (inactive) | > 100 µM (inactive) | > 100 µM (inactive) | 66.8 µM (inactive) | > 100 µM (inactive) | 29.3 µM (inactive) | > 100 µM (inactive) | > 100 µM (inactive) | > 100 µM (inactive) | > 100 µM (inactive)
